Source: patent publication US20230096766A1, “AMINO ACID HAVING FUNCTIONAL GROUP CAPABLE OF INTERMOLECULAR HYDROGEN BONDING, PEPTIDE COMPOUND CONTAINING SAME AND METHOD FOR PRODUCTION THEREOF” (Chugai Seiyaku Kabushiki Kaisha, priority 2018, published 2023)
*1 amine or outer side, *2 acyl side, *3 side chain or, on linkers, in order; H or OH if unused. Where a SMILES comes first, the peptide text is derived from it. Bridges are numbered along the chain shown (N, C = ends). [ ]: non-standard residue; d: D form. The star is where a group is joined. Phe(3-OMe,4-CONHMs) = COc1cc(C[C@H](N)C(=O)O)ccc1C(=O)NS(C)(=O)=O; X10 = CN([C@@H](CCN1CCC(F)(F)CC1)C(=O)[*:2])[*:1]; NMePhe(3-Cl) = CN[C@@H](Cc1cccc(Cl)c1)C(=O)O; Tyr(3-F) = N[C@@H](Cc1ccc(O)c(F)c1)C(=O)O; Tyr(3-OMe) = COc1cc(C[C@H](N)C(=O)O)ccc1O; NMeW = CN[C@@H](Cc1c[nH]c2ccccc12)C(=O)O; NMehPhe = CN[C@@H](CCc1ccccc1)C(=O)O; NMeF = CN[C@@H](Cc1ccccc1)C(=O)O; NMeGABA = CN(CCCC(=O)[*:2])[*:1]; NMeI = CC[C@H](C)[C@H](NC)C(=O)O; CH2CH(OH)CF3 = OC(C*)C(F)(F)F; CH2CONHtBu = CC(C)(C)NC(=O)C*; NMeL = CN[C@@H](CC(C)C)C(=O)O; Propyl(2R-OH) = C[C@@H](O)C*; NMeV = CN[C@H](C(=O)O)C(C)C; NMeAbu = CC[C@H](NC)C(=O)O; NMeA = CN[C@@H](C)C(=O)O; Piperidide = C1CCN(*)CC1; CH2CMe2OH = CC(C)(O)C*; CH2CONHMe = CNC(=O)C*; NBuGly = CCCCNCC(=O)O; NPrGly = CCCNCC(=O)O; Propyl(3-OH) = OCCC*; Ethyl(2-OH) = OCC*; Sar = CNCC(=O)O; tBu = CC(C)(C)*

Test: in vitro
Details: human, Caco-2, Caco-2

Row | Structure (SMILES) | Papp [×10⁻⁶ cm/s]
1 | CCCCN1CC(=O)N(C)[C@@H](Cc2ccccc2)C(=O)N[C@@H](CC(C)C)C(=O)N(C)[C@@H](CC(C)C)C(=O)N[C@@H]([C@@H](C)O)C(=O)N(C)CC(=O)N(C)[C@@H](Cc2ccccc2)C(=O)N(C)[C@@H](CCN2CCC(F)(F)CC2)C(=O)N[C@@H](CC(C)C)C(=O)N(C)[C@@H](C(C)C)C(=O)N[C@H](C(=O)N2CCCCC2)CC1=O [pd395] ([NBuGly][NMeF]L[NMeL]T[Sar][NMeF][X10]L[NMeV]D-Piperidide; lactam N-11) | 1.7

Same assay, conditions: human, Caco-2, Caco-2 (cm/sec)

Row | Structure (SMILES) | Papp [×10⁻⁶ cm/s]
2 | CCCCN1CC(=O)N(C)[C@@H](CC(C)C)C(=O)N[C@@H](COC(C)(C)C)C(=O)N(C)[C@@H](Cc2ccccc2)C(=O)N(C)[C@@H](CC(C)C)C(=O)N[C@H](C(=O)N2CCCCC2)CC(=O)N[C@H](C(C)C)C(=O)N(C)[C@@H](C(C)C)C(=O)N[C@@H](Cc2ccc(C(=O)NS(C)(=O)=O)c(OC)c2)C(=O)N(C)[C@@H](CC(C)C)C(=O)N[C@@H]([C@@H](C)O)C1=O [AP135] ([dV][NMeV][Phe(3-OMe,4-CONHMs)][NMeL]T[NBuGly][NMeL]S(tBu)[NMeF][NMeL]D-Piperidide; lactam N-11) | 0.88
3 | CCCCN1CC(=O)N(C)[C@@H](Cc2ccccc2)C(=O)N(C)[C@@H](CC(C)C)C(=O)N[C@@H](Cc2ccc(O)c(OC)c2)C(=O)N(C)[C@@H](CC(C)C)C(=O)N[C@H](C(=O)N2CCCCC2)CC(=O)N(C)CC(=O)N(C)[C@@H](CC(C)C)C(=O)N[C@@H]([C@@H](C)CC)C(=O)N(C)[C@@H](CC(C)C)C(=O)N[C@@H]([C@@H](C)O)C1=O [Compound E08] ([Sar][NMeL]I[NMeL]T[NBuGly][NMeF][NMeL][Tyr(3-OMe)][NMeL]D-Piperidide; lactam N-11) | 0.12
4 | CC[C@H](C)[C@@H]1NC(=O)[C@H](CC(C)C)N(C)C(=O)CCCN(C)C(=O)C[C@@H](C(=O)N2CCCCC2)NC(=O)[C@H](CC(C)C)N(C)C(=O)[C@H](CC(C)C)N(C)C(=O)[C@H]([C@@H](C)O)NC(=O)[C@H](CC(C)C)N(C)C(=O)[C@H](COCCCO)NC(=O)[C@H](Cc2cccc(Cl)c2)N(C)C(=O)[C@H](Cc2ccccc2)N(C)C1=O [AP92] ([NMeGABA][NMeL]I[NMeF][NMePhe(3-Cl)]S(Propyl(3-OH))[NMeL]T[NMeL][NMeL]D-Piperidide; lactam N-11) | 0.18
5 | CCCCN1CC(=O)N(C)[C@@H](CC(C)C)C(=O)N[C@@H](COC(C)(C)C)C(=O)N(C)[C@@H](Cc2ccccc2)C(=O)N(C)[C@@H](CC(C)C)C(=O)N[C@H](C(=O)N2CCCCC2)CC(=O)N[C@H](C(C)C)C(=O)N(C)[C@@H](Cc2ccccc2)C(=O)N[C@@H](COC[C@@H](C)O)C(=O)N(C)[C@@H](CC(C)C)C(=O)N[C@@H]([C@@H](C)O)C1=O [AP71] ([dV][NMeF]S(Propyl(2R-OH))[NMeL]T[NBuGly][NMeL]S(tBu)[NMeF][NMeL]D-Piperidide; lactam N-11) | 0.71
6 | CC(C)C[C@H]1NC(=O)C[C@@H](C(=O)N2CCCCC2)NC(=O)[C@H](C)N(C)C(=O)[C@H](CC(C)C)N(C)C(=O)[C@H](COC(C)(C)C)NC(=O)[C@H](CC(C)C)N(C)C(=O)CN(C)C(=O)[C@H]([C@@H](C)O)NC(=O)[C@H](CC(C)C)N(C)C(=O)[C@H](Cc2ccc(O)c(F)c2)NC(=O)[C@H](Cc2ccccc2)N(C)C1=O [pd118] ([dL][NMeF][Tyr(3-F)][NMeL]T[Sar][NMeL]S(tBu)[NMeL][NMeA]D-Piperidide; lactam N-11) | 0.2
7 | CC(C)C[C@@H]1NC(=O)[C@H](Cc2ccccc2)N(C)C(=O)[C@H](COC(C)(C)C)NC(=O)[C@H](Cc2ccccc2)N(C)C(=O)[C@H](C)N(C)C(=O)[C@H](CC(C)C)N(C)C(=O)[C@@H]2CCCN2C(=O)C[C@@H](C(=O)N2CCCCC2)NC(=O)[C@H](Cc2ccccc2)N(C)C(=O)[C@H]([C@@H](C)O)NC(=O)[C@H](CC(C)C)N(C)C1=O [pd214] (P[NMeL][NMeA][NMeF]S(tBu)[NMeF]L[NMeL]T[NMeF]D-Piperidide; lactam N-11) | 1.2
8 | CCCN1CC(=O)N(C)[C@@H](C)C(=O)N[C@H](C(=O)N2CCCCC2)CC(=O)N(C)[C@@H](CC(C)C)C(=O)N[C@@H](Cc2ccccc2)C(=O)N(C)[C@@H](CC(C)C)C(=O)N(C)[C@@H](CC(C)C)C(=O)N[C@@H](COCC(=O)NC(C)(C)C)C(=O)N(C)[C@@H](CCc2ccccc2)C(=O)N(C)[C@@H](CC(C)C)C(=O)N[C@@H]([C@@H](C)O)C1=O [AP15] ([NMeL]F[NMeL][NMeL]S(CH2CONHtBu)[NMehPhe][NMeL]T[NPrGly][NMeA]D-Piperidide; lactam N-11) | 0.86
9 | CCCCN1CC(=O)N(C)[C@@H](Cc2ccccc2)C(=O)N(C)[C@@H](CC(C)C)C(=O)N[C@@H](COC(C)(C)C)C(=O)N(C)[C@@H](CC(C)C)C(=O)N[C@H](C(=O)N2CCCCC2)CC(=O)N(C)CC(=O)N(C)[C@@H](Cc2ccccc2)C(=O)N[C@@H](C(C)C)C(=O)N(C)[C@@H](CC(C)C)C(=O)N[C@@H](COC[C@@H](C)O)C1=O [AP87] ([Sar][NMeF]V[NMeL]S(Propyl(2R-OH))[NBuGly][NMeF][NMeL]S(tBu)[NMeL]D-Piperidide; lactam N-11) | 1
10 | CC[C@H](C)[C@@H]1NC(=O)[C@H](CC(C)C)N(C)C(=O)CCCN(C)C(=O)C[C@@H](C(=O)N2CCCCC2)NC(=O)[C@H](CC(C)C)N(C)C(=O)[C@H](CC(C)C)N(C)C(=O)[C@H]([C@@H](C)O)NC(=O)[C@H](CC(C)C)N(C)C(=O)[C@H](Cc2ccc(O)cc2)NC(=O)[C@H](CC(C)C)N(C)C(=O)[C@H](Cc2ccccc2)N(C)C1=O [Compound F03] ([NMeGABA][NMeL]I[NMeF][NMeL]Y[NMeL]T[NMeL][NMeL]D-Piperidide; lactam N-11) | 0.13
11 | CC[C@H](C)[C@@H]1NC(=O)[C@H](CC(C)C)N(C)C(=O)CCCN(C)C(=O)C[C@@H](C(=O)N2CCCCC2)NC(=O)[C@H](CC(C)C)N(C)C(=O)[C@H](C)N(C)C(=O)[C@H](Cc2ccc(O)cc2)NC(=O)[C@H](CC(C)C)N(C)C(=O)[C@H](COC(C)(C)C)NC(=O)[C@H](CC(C)C)N(C)C(=O)[C@H](Cc2ccccc2)N(C)C1=O [pd129] ([NMeGABA][NMeL]I[NMeF][NMeL]S(tBu)[NMeL]Y[NMeA][NMeL]D-Piperidide; lactam N-11) | 0.16
12 | CC(C)C[C@H]1C(=O)N[C@H](C(=O)N(C)[C@@H](Cc2ccccc2)C(=O)N[C@@H](C)C(=O)N2CCCCC2)CC(=O)N(C)[C@@H](C)C(=O)N[C@@H]([C@@H](C)O)C(=O)N(C)[C@@H](C)C(=O)N(C)[C@@H](CC(C)C)C(=O)N[C@@H](C(C)C)C(=O)N(C)[C@@H](Cc2ccccc2)C(=O)N[C@@H](Cc2ccccc2)C(=O)N1C [pd212] ([NMeA]T[NMeA][NMeL]V[NMeF]F[NMeL]D[NMeF]A-Piperidide; lactam N-9) | 1.4
13 | COc1cc(C[C@@H]2NC(=O)[C@H](CC(C)C)N(C)C(=O)CCCN(C)C(=O)C[C@@H](C(=O)N3CCCCC3)NC(=O)[C@H](CC(C)C)N(C)C(=O)[C@H](CC(C)C)N(C)C(=O)[C@H]([C@@H](C)O)NC(=O)[C@H](CC(C)C)N(C)C(=O)[C@H](COC(C)(C)C)NC(=O)[C@H](Cc3ccccc3)N(C)C(=O)[C@H](CC(C)C)N(C)C2=O)ccc1O [Compound E04] ([NMeGABA][NMeL][Tyr(3-OMe)][NMeL][NMeF]S(tBu)[NMeL]T[NMeL][NMeL]D-Piperidide; lactam N-11) | 0.4
14 | CC(C)C[C@@H]1NC(=O)[C@H](C(C)C)N(C)C(=O)C[C@@H](C(=O)N2CCCCC2)NC(=O)[C@H](CC(C)C)N(C)C(=O)CN(C)C(=O)[C@H]([C@@H](C)O)NC(=O)[C@H](CC(C)C)N(C)C(=O)[C@H](CCc2ccccc2)N(C)C(=O)[C@H](COCCO)NC(=O)[C@H](Cc2ccccc2)N(C)C(=O)[C@H](CC(C)C)N(C)C1=O [Compound A06] ([NMeV]L[NMeL][NMeF]S(Ethyl(2-OH))[NMehPhe][NMeL]T[Sar][NMeL]D-Piperidide; lactam N-11) | 0.53
15 | CC[C@H]1C(=O)N[C@@H](Cc2ccc(O)c(OC)c2)C(=O)N(C)[C@@H](CC(C)C)C(=O)N(C)[C@@H](CC(C)C)C(=O)N[C@@H](C(C)C)C(=O)N(C)[C@@H](Cc2ccccc2)C(=O)N(C)[C@@H](CC(C)C)C(=O)N[C@@H]([C@@H](C)O)C(=O)N(C)CC(=O)N(C)[C@@H](CC(C)C)C(=O)N[C@H](C(=O)N2CCCCC2)CC(=O)N1C [Compound E06] ([NMeAbu][Tyr(3-OMe)][NMeL][NMeL]V[NMeF][NMeL]T[Sar][NMeL]D-Piperidide; lactam N-11) | 0.97
16 | CC(C)C[C@H]1C(=O)N(C)[C@@H](CC(C)C)C(=O)N(C)[C@@H](Cc2c[nH]c3ccccc23)C(=O)N[C@@H]([C@@H](C)O)C(=O)N(C)[C@@H](C)C(=O)N(C)[C@@H](CC(C)C)C(=O)N[C@H](C(=O)N2CCCCC2)CC(=O)N(C)[C@@H](C)C(=O)N(C)[C@@H](CC(C)C)C(=O)N(C)[C@@H](CC(C)C)C(=O)N[C@@H](C)C(=O)N1C [pd105] ([NMeA][NMeL][NMeL]A[NMeL][NMeL][NMeW]T[NMeA][NMeL]D-Piperidide; lactam N-11) | 0.28
17 | CCCN1CC(=O)N(C)[C@@H](CC(C)C)C(=O)N[C@H](C(=O)N2CCCCC2)CC(=O)N(C)[C@@H](C)C(=O)N[C@@H](COCC(C)(C)O)C(=O)N(C)[C@@H](CC(C)C)C(=O)N(C)[C@@H](Cc2ccccc2)C(=O)N[C@@H](CC(C)C)C(=O)N(C)[C@@H](Cc2ccccc2)C(=O)N(C)[C@@H]([C@@H](C)CC)C(=O)N[C@@H]([C@@H](C)O)C1=O [AP05] ([NMeA]S(CH2CMe2OH)[NMeL][NMeF]L[NMeF][NMeI]T[NPrGly][NMeL]D-Piperidide; lactam N-11) | 2.8

Same assay, conditions: human, Caco-2, Caco-2 (membrane permeability)

Row | Structure (SMILES) | Papp [×10⁻⁶ cm/s]
18 | CCCCN1CC(=O)N(C)[C@@H](Cc2ccccc2)C(=O)N(C)[C@@H](CC(C)C)C(=O)N[C@@H](COCC(O)C(F)(F)F)C(=O)N(C)[C@@H](CC(C)C)C(=O)N[C@H](C(=O)N2CCCCC2)CC(=O)N(C)CC(=O)N(C)[C@@H](Cc2ccccc2)C(=O)N[C@@H]([C@@H](C)CC)C(=O)N(C)[C@@H](CC(C)C)C(=O)N[C@@H]([C@@H](C)O)C1=O (stereo partly drawn) [Compound C07] ([Sar][NMeF]I[NMeL]T[NBuGly][NMeF][NMeL]S(CH2CH(OH)CF3)[NMeL]D-Piperidide; lactam N-11) | 0.45
19 | CNC(=O)COC[C@@H]1NC(=O)[C@H](CC(C)C)N(C)C(=O)C[C@@H](C(=O)N2CCCCC2)NC(=O)[C@H](CC(C)C)N(C)C(=O)CN(C)C(=O)[C@H]([C@@H](C)O)NC(=O)[C@H](CC(C)C)N(C)C(=O)[C@H](CCc2ccccc2)N(C)C(=O)[C@H](CC(C)C)NC(=O)[C@H](Cc2ccccc2)N(C)C(=O)[C@H](CC(C)C)N(C)C1=O [Compound I03] ([NMeL]S(CH2CONHMe)[NMeL][NMeF]L[NMehPhe][NMeL]T[Sar][NMeL]D-Piperidide; lactam N-11) | 0.25
